System: 435261-313-R-J1-PDC complex spheroid viability
Experiment: Anticancer human tumor 435261-313-R-J1-PDC patient-derived colon adenocarcinoma cell line growth inhibition [GQUAD]
Conditions: for IC50: curve of first compound; for viability, T/C: stronger effect = lower value; active = viability on the fitted dose curve at most 10% of control; inactive = the rest
Method in brief: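 Tumor cells were grown as complex spheroids with HUVEC endothelial cells and mesenchymal stem cells as stroma. G-quadruplex stabilizers were combined with targeted agents over half-log dilutions from near the clinical Cmax, or from 10 microM.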

[1] = second compound 0.0316 µM, first compound 0.000999 µM
[2] = second compound 0.0316 µM, first compound 0.00316 µM
[3] = second compound 0.0316 µM, first compound 0.00999 µM
[4] = second compound 0.0316 µM, first compound 0.0316 µM
[5] = second compound 0.0316 µM, first compound 0.0999 µM
[6] = second compound 0.0316 µM, first compound 0.316 µM
[7] = second compound 0.1 µM, first compound 0.000999 µM
[8] = second compound 0.1 µM, first compound 0.00316 µM
[9] = second compound 0.1 µM, first compound 0.00999 µM
[10] = second compound 0.1 µM, first compound 0.0316 µM
[11] = second compound 0.1 µM, first compound 0.0999 µM
[12] = second compound 0.1 µM, first compound 0.316 µM
[13] = second compound 0.316 µM, first compound 0.000999 µM
[14] = second compound 0.316 µM, first compound 0.00316 µM
[15] = second compound 0.316 µM, first compound 0.00999 µM
[16] = second compound 0.316 µM, first compound 0.0316 µM
[17] = second compound 0.316 µM, first compound 0.0999 µM
[18] = second compound 0.316 µM, first compound 0.316 µM
[19] = second compound 1 µM, first compound 0.000999 µM
[20] = second compound 1 µM, first compound 0.00316 µM
[21] = second compound 1 µM, first compound 0.00999 µM
[22] = second compound 1 µM, first compound 0.0316 µM
[23] = second compound 1 µM, first compound 0.0999 µM
[24] = second compound 1 µM, first compound 0.316 µM
[25] = second compound 3.16 µM, first compound 0.000999 µM
[26] = second compound 3.16 µM, first compound 0.00316 µM
[27] = second compound 3.16 µM, first compound 0.00999 µM
[28] = second compound 3.16 µM, first compound 0.0316 µM
[29] = second compound 3.16 µM, first compound 0.0999 µM
[30] = second compound 3.16 µM, first compound 0.316 µM
[31] = second compound 10 µM, first compound 0.000999 µM
[32] = second compound 10 µM, first compound 0.00316 µM
[33] = second compound 10 µM, first compound 0.00999 µM
[34] = second compound 10 µM, first compound 0.0316 µM
[35] = second compound 10 µM, first compound 0.0999 µM
[36] = second compound 10 µM, first compound 0.316 µM
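Note: spheroids exposed to the agents for seven days before readout.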
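Throughout, for viability, T/C: percent of vehicle control viability with DMSO wells as 100%.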

CC[C@@]1(O)C(=O)OCc2c1cc1n(c2=O)Cc2cc3c(CN(C)C)c(O)ccc3nc2-1 + Cc1cnc(CNC(=O)c2c(=O)c3ccc(N4CCCN(C)CC4)nc3n3c2sc2ccccc23)cn1
< 0.999 nM: IC50 (second compound 1 µM) | IC50 (second compound 3.16 µM) | IC50 (second compound 10 µM)
inactive: viability, T/C [1] 66.6% | viability, T/C [2] 63% | viability, T/C [3] 73% | viability, T/C [4] 53% | viability, T/C [5] 60.6% | viability, T/C [6] 72.1% | viability, T/C [7] 57.3% | viability, T/C [8] 69% | viability, T/C [9] 58.7% | viability, T/C [10] 50.9% | viability, T/C [11] 63.2% | viability, T/C [12] 53.4% | viability, T/C [13] 53.1% | viability, T/C [14] 59.2% | viability, T/C [15] 50.5% | viability, T/C [16] 55.8% | viability, T/C [17] 46.2% | viability, T/C [18] 49.3% | viability, T/C [19] 31.9% | viability, T/C [20] 48.8% | viability, T/C [21] 35.2% | viability, T/C [22] 43.4% | viability, T/C [23] 47.6% | viability, T/C [24] 34.1% | viability, T/C [25] 16.9% | viability, T/C [26] 20.2% | viability, T/C [27] 21.8% | viability, T/C [28] 16% | viability, T/C [29] 12.1% | viability, T/C [30] 8.56%
active: viability, T/C [31] 0.19% | viability, T/C [32] 0.19% | viability, T/C [33] 0.22% | viability, T/C [34] 0.23% | viability, T/C [35] 0.23% | viability, T/C [36] 0.22%
> 316 nM: IC50 (second compound 0.0316 µM) | IC50 (second compound 0.1 µM)
113 nM: IC50 (second compound 0.316 µM)

CCc1c2c(nc3ccc(O)cc13)-c1cc3c(c(=O)n1C2)COC(=O)[C@]3(O)CC + Cc1cnc(CNC(=O)c2c(=O)c3ccc(N4CCCN(C)CC4)nc3n3c2sc2ccccc23)cn1
48 nM: IC50 (second compound 0.1 µM)
53.2 nM: IC50 (second compound 0.0316 µM)
inactive: viability, T/C [1] 63.5% | viability, T/C [2] 60.3% | viability, T/C [3] 56.9% | viability, T/C [4] 53.3% | viability, T/C [5] 47% | viability, T/C [6] 30.9% | viability, T/C [7] 66.2% | viability, T/C [8] 65.6% | viability, T/C [9] 52.2% | viability, T/C [10] 52.7% | viability, T/C [11] 47.1% | viability, T/C [12] 17.5% | viability, T/C [13] 52.9% | viability, T/C [14] 60% | viability, T/C [15] 51.5% | viability, T/C [16] 34.5% | viability, T/C [17] 36.9% | viability, T/C [19] 38.9% | viability, T/C [20] 35% | viability, T/C [21] 35.6% | viability, T/C [22] 28.7% | viability, T/C [23] 14.9% | viability, T/C [25] 13.5%
11.2 nM: IC50 (second compound 0.316 µM)
active: viability, T/C [18] 1.36% | viability, T/C [24] 0.15% | viability, T/C [26] 12.2% | viability, T/C [27] 4.86% | viability, T/C [28] 0.17% | viability, T/C [29] 0.14% | viability, T/C [30] 0.15% | viability, T/C [31] 0.15% | viability, T/C [32] 0.14% | viability, T/C [33] 0.19% | viability, T/C [34] 0.2% | viability, T/C [35] 0.2% | viability, T/C [36] 0.14%
< 0.999 nM: IC50 (second compound 1 µM) | IC50 (second compound 3.16 µM) | IC50 (second compound 10 µM)

COc1cc(C2c3cc4c(cc3C(OC3OC5COC(C)OC5C(O)C3O)C3COC(=O)C23)OCO4)cc(OC)c1O (stereo unspecified) + Cc1cnc(CNC(=O)c2c(=O)c3ccc(N4CCCN(C)CC4)nc3n3c2sc2ccccc23)cn1
> 10000 nM: IC50 (second compound 0.0316 µM) | IC50 (second compound 0.1 µM) | IC50 (second compound 0.316 µM)
< 31.6 nM: IC50 (second compound 1 µM) | IC50 (second compound 3.16 µM) | IC50 (second compound 10 µM)
active: viability, T/C [34] 0.14% | viability, T/C (second compound 10 µM, first compound 0.1 µM) 0.13% | viability, T/C [36] 0.12% | viability, T/C (second compound 10 µM, first compound 1 µM) 0.12% | viability, T/C (second compound 10 µM, first compound 3.16 µM) 0.2% | viability, T/C (second compound 10 µM, first compound 10 µM) 0.14%
inactive: viability, T/C [4] 77.6% | viability, T/C (second compound 0.0316 µM, first compound 0.1 µM) 59.1% | viability, T/C [6] 60.8% | viability, T/C (second compound 0.0316 µM, first compound 1 µM) 56.3% | viability, T/C (second compound 0.0316 µM, first compound 3.16 µM) 55% | viability, T/C (second compound 0.0316 µM, first compound 10 µM) 54.2% | viability, T/C [10] 86.6% | viability, T/C (second compound 0.1 µM, first compound 0.1 µM) 63.6% | viability, T/C [12] 54.2% | viability, T/C (second compound 0.1 µM, first compound 1 µM) 60.7% | viability, T/C (second compound 0.1 µM, first compound 3.16 µM) 47.1% | viability, T/C (second compound 0.1 µM, first compound 10 µM) 54.5% | viability, T/C [16] 48.3% | viability, T/C (second compound 0.316 µM, first compound 0.1 µM) 60% | viability, T/C [18] 53.1% | viability, T/C (second compound 0.316 µM, first compound 1 µM) 53% | viability, T/C (second compound 0.316 µM, first compound 3.16 µM) 51.8% | viability, T/C (second compound 0.316 µM, first compound 10 µM) 50.7% | viability, T/C [22] 31.6% | viability, T/C (second compound 1 µM, first compound 0.1 µM) 38.1% | viability, T/C [24] 39% | viability, T/C (second compound 1 µM, first compound 1 µM) 43% | viability, T/C (second compound 1 µM, first compound 3.16 µM) 34.3% | viability, T/C (second compound 1 µM, first compound 10 µM) 35.6% | viability, T/C [28] 16.7% | viability, T/C (second compound 3.16 µM, first compound 0.1 µM) 16.3% | viability, T/C [30] 11.1% | viability, T/C (second compound 3.16 µM, first compound 1 µM) 12% | viability, T/C (second compound 3.16 µM, first compound 3.16 µM) 19.7% | viability, T/C (second compound 3.16 µM, first compound 10 µM) 5.43%

— PubChem BioAssay AID2060494 (Molecular Pharmacology Branch, DTP, NCI, 2025)
